# Values of other authors as cited in patent US20190233345A1, “AGRICULTURAL SYSTEMS, COMPOSITIONS AND METHODS FOR INCREASING CROP YIELD” (E. I. DU PONT DE NEMOURS AND COMPANY, priority 2016, published 2019).
# Experiments:
# [1] = test system: lepidopteran pests of soy (including Army Worm; Spodoptera frugiperda and Velvet Bean Caterpillar (Anticarsia gemmatalis))
# [2] = test system: lepidopteran pests of corn (including Army Worm; Spodoptera frugiperda)
SMILES,LD-50 [1],LD-50 [2]
"CNC(=O)c1cc(C#N)cc(C)c1NC(=O)c1cc(Br)nn1-c1ncccc1Cl [HGW, cyantraniliprole]",50-60 ppb,50-60 ppb
"CNC(=O)c1cc(Cl)cc(C)c1NC(=O)c1cc(Br)nn1-c1ncccc1Cl [Prototype E2Y, chlorantraniliprole]",15-20 ppb,15-20 ppb
